Reference: ChEMBL document CHEMBL3817798, “Cholecystokinin-1 receptor antagonists: 5-hydroxy-5-aryl-pyrrol-2-ones as anticancer agents” (Medchemcomm, 2016)
Calls of active or inactive are those of the source. No cut-off for these calls is given here.

How the values were obtained:
[1] = Displacement of [125]I-CCK-8 from CCK-B receptor in guinea pig cerebral cortex after 2 hrs by gamma counting; type: tissue-based, Cavia porcellus
[2] = biological target: T1, Cholecystokinin receptor type A (Rattus norvegicus, UniProt P30551); test: Displacement of [125]I-CCK-8 from CCK-A receptor in rat pancreatic membrane after 2 hrs by gamma counting; type: cell membranes
T1 sequence (P30551 whole entry): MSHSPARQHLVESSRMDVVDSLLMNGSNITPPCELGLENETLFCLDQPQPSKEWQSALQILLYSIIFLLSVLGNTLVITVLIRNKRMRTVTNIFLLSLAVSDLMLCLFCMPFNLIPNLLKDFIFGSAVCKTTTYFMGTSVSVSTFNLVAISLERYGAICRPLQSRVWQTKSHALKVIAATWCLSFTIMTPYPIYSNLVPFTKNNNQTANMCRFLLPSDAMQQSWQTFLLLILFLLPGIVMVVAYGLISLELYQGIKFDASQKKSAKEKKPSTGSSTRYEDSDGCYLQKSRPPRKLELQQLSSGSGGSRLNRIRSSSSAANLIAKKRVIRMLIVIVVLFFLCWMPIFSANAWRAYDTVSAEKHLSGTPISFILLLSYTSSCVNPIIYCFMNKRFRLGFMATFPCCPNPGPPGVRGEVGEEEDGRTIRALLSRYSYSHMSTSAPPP

[3] = Antiproliferative activity against human MiaPaCa cells assessed as reduction in cell viability after 3 days by MTT assay; type: functional, cell-based; details: MIA PaCa-2, 72 h
AGS = test: Antiproliferative activity against human AGS cells assessed as reduction in cell viability after 3 days by MTT assay; type: functional, cell-based; details: 72 h
[4] = Antiproliferative activity against human PANC cells assessed as reduction in cell viability after 3 days by MTT assay; type: functional, cell-based; details: 72 h
[5] = Antiproliferative activity against human U373MG cells assessed as reduction in cell viability after 3 days by MTT assay; type: functional, cell-based, U-373MG ATCC; details: U373 MG, 72 h
MAC13 = test: Antiproliferative activity against mouse MAC13 cells assessed as reduction in cell viability after 3 days by MTT assay; type: functional, cell-based; details: MAC13, 72 h
MAC16 [6] = test: Antiproliferative activity against mouse MAC16 cells assessed as reduction in cell viability after 3 days by MTT assay; type: functional, cell-based; details: MAC16, 72 h
[7] = biological target: T2, Cholecystokinin receptor type A (Homo sapiens) (UniProt P32238); test: […] activity at CCK1 receptor (unknown origin)
T2 sequence (whole entry): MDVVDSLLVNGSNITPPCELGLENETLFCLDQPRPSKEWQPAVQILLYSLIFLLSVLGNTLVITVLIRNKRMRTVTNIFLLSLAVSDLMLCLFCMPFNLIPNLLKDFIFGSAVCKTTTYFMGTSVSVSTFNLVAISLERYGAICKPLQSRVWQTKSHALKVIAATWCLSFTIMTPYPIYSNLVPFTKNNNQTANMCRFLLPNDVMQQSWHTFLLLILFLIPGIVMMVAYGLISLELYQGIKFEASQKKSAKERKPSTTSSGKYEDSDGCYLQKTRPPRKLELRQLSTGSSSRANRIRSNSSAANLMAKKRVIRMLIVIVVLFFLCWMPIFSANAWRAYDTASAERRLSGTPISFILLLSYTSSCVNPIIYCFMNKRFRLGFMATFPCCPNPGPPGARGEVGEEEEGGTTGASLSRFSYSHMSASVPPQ

[8] = biological target: T3, Cholecystokinin receptor type A (Rattus norvegicus) (UniProt P30551); test: Antagonist activity at CCK1 receptor in rat duodenum assessed as inhibition of electrically stimulated contraction
T3 sequence (whole entry): T1 sequence (P30551 whole entry)

[9] = biological target: T4, Cholecystokinin receptor type A (Cavia porcellus) (UniProt Q63931); test: Insurmountable antagonist activity at CCK1 receptor in guinea pig bladder assessed as inhibition of CCK8s induced contraction preincubated 10 mins followed by CCK8s addition
T4 sequence (whole entry): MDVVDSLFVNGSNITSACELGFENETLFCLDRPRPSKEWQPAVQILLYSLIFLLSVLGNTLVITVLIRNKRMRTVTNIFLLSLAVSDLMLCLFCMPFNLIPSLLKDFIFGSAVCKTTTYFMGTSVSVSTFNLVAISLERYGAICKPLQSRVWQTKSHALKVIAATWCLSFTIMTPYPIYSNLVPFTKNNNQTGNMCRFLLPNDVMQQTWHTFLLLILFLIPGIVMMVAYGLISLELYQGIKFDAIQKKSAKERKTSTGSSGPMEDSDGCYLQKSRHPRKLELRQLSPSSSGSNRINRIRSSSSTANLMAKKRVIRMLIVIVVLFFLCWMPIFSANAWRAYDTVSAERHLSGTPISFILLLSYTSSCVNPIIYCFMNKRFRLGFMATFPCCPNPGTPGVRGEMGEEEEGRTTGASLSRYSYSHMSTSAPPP

[10] = Oral bioavailability in rat; type: ADME, organism-based; details: in vivo
[11] = Half life in rat; type: ADME, organism-based; details: in vivo
MAC16 [12] = test: Antitumor activity against mouse MAC16 cells xenografted in po dosed NSG mouse measured thrice weekly after compound dosage; type: functional, organism-based
MiaPaCa = test: Antitumor activity against human MiaPaCa cells xenografted in po dosed NSG mouse measured thrice weekly after compound dosage; type: functional, organism-based
MAC16 [13] = test: Antimetastatic activity against mouse MAC16 cells xenografted in po dosed NSG mouse assessed as reduction of cell migration to lung measured thrice weekly after compound dosage; type: functional, organism-based
[14] = Potency index, ratio of lorglumide IC50 to compound IC50 for human MiaPaCa cells; type: functional

Structure (SMILES) | IC50 [1] | IC50 [2] | IC50 [3] | IC50 (AGS) | IC50 [4] | IC50 [5] | IC50 (MAC13) | IC50 (MAC16 [6]) | other results
CN1C(=O)C=C(Cl)C1(O)c1ccc(Cl)cc1 (stereo not drawn) | > 10000 nM | 2000 nM |  |  |  |  |  |  | 
Cc1cccc(NC(=O)N[C@@H]2N=C(c3ccccc3)c3ccccc3N(C)C2=O)c1 [L-365260] |  |  | > 5000 nM | 675 nM | > 1000 nM | 541 nM | > 5000 nM | > 5000 nM | 
O=C1C=C(Cl)C(O)(c2ccccc2)N1C1CCCCC1 (stereo not drawn) | > 10000 nM | > 10000 nM |  |  |  |  |  |  | 
CCCCCCN1C(=O)C=C(Cl)C1(O)c1ccccc1 (stereo not drawn) | > 10000 nM | 4500 nM |  |  |  |  |  |  | 
CC(C)(C)N1C(=O)C=C(Cl)C1(O)c1ccccc1 (stereo not drawn) | 900 nM | 120 nM |  |  |  |  |  |  | 
O=C1C=C(Cl)C(O)(c2ccccc2)N1c1ccccc1 (stereo not drawn) | > 10000 nM | > 10000 nM |  |  |  |  |  |  | 
CN1C(=O)C(NC(=O)c2cc3ccccc3[nH]2)N=C(c2ccccc2)c2ccccc21 (stereo not drawn) |  |  | 1200 nM | > 5000 nM | 480 nM | > 5000 nM | 1100 nM | 1000 nM | Activity [7]: Active
CC(C)CN1C(=O)C=C(Cl)C1(O)c1ccc(Cl)cc1 (stereo not drawn) | 400 nM | 8 nM | 13 nM | 242 nM | 22 nM | 475 nM | 526 nM | 86 nM | inhibition [8]: Dose-dependent effect; inhibition [9]: Dose-dependent effect
CC(C)N1C(=O)C=C(Cl)C1(O)c1ccc(Cl)cc1 (stereo not drawn) | 3700 nM | 300 nM |  |  |  |  |  |  | 
O=C1C=C(Cl)C(O)(c2ccccc2)N1C1CCCC1 (stereo not drawn) | 840 nM |  |  |  |  |  |  |  | 
CCCCCN(CCCCC)C(=O)C(CCC(=O)O)NC(=O)c1ccc(Cl)c(Cl)c1 (stereo not drawn) [LORGLUMIDE SODIUM] | > 10000 nM | 170 nM | 425 nM | 289 nM | 316 nM | > 5000 nM | 421 nM | 861 nM | 
CC(C)CN1C(=O)C=C(Cl)C1(O)c1ccc(F)cc1 (stereo not drawn) | 750 nM | 12 nM | 11 nM | 222 nM | 18 nM | 665 nM | 508 nM | 76 nM | bioavailability [10]: 98%; half-life [11]: 3.5 h; TGI (MAC16 [12]): Active; TGI (MiaPaCa): Active; Activity (MAC16 [13]): Active
O=C1C=C(Cl)C(O)(c2ccc(Cl)cc2)N1C1CC1 (stereo not drawn) | > 10000 nM | 4000 nM |  |  |  |  |  |  | 
O=C1C=C(Cl)C(O)(c2ccc(Cl)cc2)N1C1CCCC1 (stereo not drawn) | 10000 nM |  |  |  |  |  |  |  | 
O=C1C=C(Cl)C(O)(c2ccccc2)N1C1CC1 (stereo not drawn) | > 10000 nM | 7500 nM |  |  |  |  |  |  | 
CC(C)CN1C(=O)C=C(Cl)C1(O)c1ccccc1 (stereo not drawn) | 1200 nM | 20 nM | 15 nM | 262 nM | 27 nM | 765 nM | 536 nM | 96 nM | TGI (MAC16 [12]): Active; TGI (MiaPaCa): Active; Ratio IC50 [14]: 20; Activity (MAC16 [13]): Active
CC(C)N1C(=O)C=C(Cl)C1(O)c1ccccc1 (stereo not drawn) | 900 nM | 200 nM |  |  |  |  |  |  | 
O=C1C=C(Cl)C(O)(c2ccccc2)N1Cc1ccccc1 (stereo not drawn) | 22 nM | 800 nM | 230 nM | 53 nM | 674 nM | 23 nM | > 1000 nM | > 1000 nM | 
CN1C(=O)C=C(Cl)C1(O)c1ccccc1 (stereo not drawn) | > 10000 nM | 2500 nM |  |  |  |  |  |  | 
CCCCCCN1C(=O)C=C(Cl)C1(O)c1ccc(Cl)cc1 (stereo not drawn) | > 10000 nM | 3600 nM |  |  |  |  |  |  | 
